Molecular target: GSNOR (Homo sapiens, UniProt P11766)
Assay: Dead-end inhibition studies of GSNOR
Type: biochemical
Parameters: made in house; host or cells: E. coli
Details: pH 7.5, 25° C., GSNO held at 10 μM
Experimental: Referring now to Table 3, inhibition experiments were performed at 25° C. in 50 mM potassium phosphate (pH 7.5) including 0.1 mM EDTA. A minimum of five concentrations of the varied substrate and three inhibitor concentrations were used for each experiment. NADH and GSNO concentrations were held at 15 or 10 μM, respectively when present as a constant substrate in the assay. The Kis and Kii values are respectively the slope and intercept inhibition constants and are listed along with their associated standard errors. All data were fit to a competitive (C), noncompetitive (NC), or uncompetitive (UC) inhibition models. The type of inhibition shown in the table represents the best fit of the data to the given model as judged from F statistics analysis. […] The dissociation constant was measured at 25° C. in 50 mM potassium phosphate pH 7.5. Each KD value is an average of three independent experiments and is shown with the associated standard error.
Inhibition experiments with the GSNOR inhibitors were conducted at 25° C. in 3 ml of 50 mM potassium phosphate (pH 7.5) containing 0.1 mM EDTA. […] A minimum of three inhibitor concentrations were used in these assays and the rate of NADH and GSNO consumption was determined spectrophotometrically by following change in absorbance at 340 nm. […]

GSNOR, sequence (P11766 2-374 limits assumed): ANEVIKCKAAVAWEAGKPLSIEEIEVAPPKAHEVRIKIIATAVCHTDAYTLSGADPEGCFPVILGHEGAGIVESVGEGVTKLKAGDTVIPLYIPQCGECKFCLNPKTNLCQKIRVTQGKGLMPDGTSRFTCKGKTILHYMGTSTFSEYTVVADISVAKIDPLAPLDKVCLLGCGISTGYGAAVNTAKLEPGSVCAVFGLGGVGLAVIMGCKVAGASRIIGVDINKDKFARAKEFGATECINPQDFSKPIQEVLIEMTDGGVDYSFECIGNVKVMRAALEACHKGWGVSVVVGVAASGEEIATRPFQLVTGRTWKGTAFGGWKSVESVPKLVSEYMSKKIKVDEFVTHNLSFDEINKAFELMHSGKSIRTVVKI

Structure (SMILES): N#Cc1ccccc1CSc1nc2ccsc2c(=O)n1Cc1ccc(C(=O)O)cc1 [Compound 8]
- type of inhibition against varied NADH: uncompetitive
